15 compounds from US7910582B2, “Cyclopropyl amines as modulators of the histamine H3 receptor” (Janssen Pharmaceutica NV, priority 2005, dated 2011) can be followed below.

Where a name gives a salt, the structure may show the parent alone. Read-outs that look alike come from different tables or passages of the source.

The target of data set [1] is T1, Human H3 Receptor (Homo sapiens, UniProt Q9Y5N1).
T1 construct: expressed in transfected cells
Put plainly: [3H]-N-Methylhistamine binding, membranes of H3 receptor-expressing SK-N-MC cells. The note with it: 0.8 nM [3H]-N-methylhistamine, 60 min at 25° C., average of results. As to the method: (§1) Cells were grown to about 70% to 80% confluence and removed from the plate with trypsin and pelleted in a clinical centrifuge. The pellet was then re-suspended in 400 μL of complete media and transferred to an electroporation cuvette with a 0.4 cm gap between the electrodes (Bio-Rad #165-2088). One μg supercoiled H3 receptor cDNA was added to the cells and mixed gently. The voltage for the electroporation was set at 0.25 kV and the capacitance was set at 960 μF. After electroporation the cells were diluted with 10 mL of complete media and were plated onto four 10 cm dishes at the following ratios: 1:20, 1:10, 1:5, and 1:2. The cells were allowed to recover for 24 h before adding 600 μg G-418. Colonies that survived selection were grown and tested. SK-N-MC cells were used because they give efficient coupling for inhibition of adenylate cyclase. The clones that gave the most robust inhibition of adenylate cyclase in response to histamine were used for further study.
Cell pellets from histamine H3 receptor-expressing SK-N-MC cells were homogenized in 50 mM TrisHCl/0.5 mM EDTA. Supernatants from an 800 g spin were collected and were recentrifuged at 30,000 g for 30 min. Pellets were re-homogenized in 50 mM Tris/5 mM EDTA (pH 7.4). Membranes were incubated with 0.8 nM [^3H]-N-methylhistamine plus/minus test compounds for 60 min at 25° C. and were harvested by rapid filtration over GF/C glass fiber filters (pretreated with 0.3% polyethylenimine) followed by four washes with buffer. Filters were added to 5 mL of scintillation cocktail, and the signal was then counted on a liquid scintillation counter.

For data set [2], the target named is T1, Human H3 Receptor. Kind of data set: Cyclic AMP accumulation, SK-N-MC cells with reporter construct and human H3 receptor (pA2). In kind it is cell-based. The note with it: pA2, average of results. As to the method: as §1, with “The pellet was then re-suspended in 400 μL of complete media and transferred to an electroporation cuvette with a 0.4 cm gap between the electrodes (Bio-Rad #165-2088).” left out, “The cells were allowed to recover for 24 h before adding 600 μg G-418.” left out
Sublines of SK-N-MC cells were created that expressed a reporter construct and the human H3 receptor.

A short description of data set [3]: Pharmacokinetics and bioanalysis in the rat. The conditions noted are these: for half-life (T1/2) relative to the comparative examples / volume of distribution (Vd) relative to the comparative examples: compared with isopropyl / cyclobutyl analogs. It is filed as in vivo, male Sprague Dawley Rats. As to the method: One group of six male Sprague Dawley Rats (approx. 300 g body weight; three animals per time point) was used. They were group-housed, provided food and water ad libitum, and were maintained on a 12-h light and dark cycle. Animals were acclimatized for at least 7 days after receipt from the vendor prior to investigations.
For oral dosing, test compounds were formulated at 1 mg/mL in 0.5% hydroxypropyl methyl cellulose and delivered at a dose of 10 mg/kg. Citric acid salt forms (prepared as described for Example 1B) of the test compounds were used. Animals received a bolus dose of 10 mg/kg (10 mL/kg) for each compound via a 16 gauge intragastric gavage. For intravenous dosing, test compounds were formulated at 1 mg/mL in 5% dextrose in water and dosed at 1 mg/kg (1 mL/kg) with a bolus intravenous dose via a 24-gauge Terumo® Surflo® catheter in the lateral tail vein. All dosing solutions were prepared immediately prior to injection.
Blood samples (250 μL) were taken from the lateral tail vein into heparinized Natelson blood collection tubes and expelled into 1.5 mL mcirocentrifuge tubes. The blood samples were centrifuged for 5 min at 14,000 rpm in a micro-centrifuge. Plasma was retained and kept in a −20° C. freezer until analysis by LC-MS/MS.
Data analysis was performed using WinNonlin version 3.3 or 4.0.1. A non -compartmental model (#200 for Extravascular administration and #201 for i.v.) was used to determine the pharmacokinetic parameters shown in Tables 4 and 5 (NA=not applicable or not determined).

[4] abbreviates: male, Sprague Dawley, iv, i.v. 1 mg/kg, citric acid salt, plasma.
Where [5] appears, read: male, Sprague Dawley, iv, i.v. 1 mg/kg, citric acid salt, plasma, read-out: AUCINF.
Where [6] appears, read: male, Sprague Dawley, oral 10 mg/kg, citric acid salt, plasma.
[7] abbreviates: male, Sprague Dawley, oral 10 mg/kg, citric acid salt, plasma, read-out: AUCINF.
Setting [8] is: male, Sprague Dawley, plasma, iv, i.v. 1 mg/kg, citric acid salt, read-out: Vd.
The mark [9] stands for this setting: oral 10 mg/kg, citric acid salt.
Setting [10] is: male, Sprague Dawley, iv, i.v. 1 mg/kg, citric acid salt, plasma, read-out: AUCINF (h-μmol/mL).
Setting [11] is: male, Sprague Dawley, oral 10 mg/kg, citric acid salt, plasma, read-out: AUCINF (h-μmol/mL).

T1 sequence (Q9Y5N1 whole entry): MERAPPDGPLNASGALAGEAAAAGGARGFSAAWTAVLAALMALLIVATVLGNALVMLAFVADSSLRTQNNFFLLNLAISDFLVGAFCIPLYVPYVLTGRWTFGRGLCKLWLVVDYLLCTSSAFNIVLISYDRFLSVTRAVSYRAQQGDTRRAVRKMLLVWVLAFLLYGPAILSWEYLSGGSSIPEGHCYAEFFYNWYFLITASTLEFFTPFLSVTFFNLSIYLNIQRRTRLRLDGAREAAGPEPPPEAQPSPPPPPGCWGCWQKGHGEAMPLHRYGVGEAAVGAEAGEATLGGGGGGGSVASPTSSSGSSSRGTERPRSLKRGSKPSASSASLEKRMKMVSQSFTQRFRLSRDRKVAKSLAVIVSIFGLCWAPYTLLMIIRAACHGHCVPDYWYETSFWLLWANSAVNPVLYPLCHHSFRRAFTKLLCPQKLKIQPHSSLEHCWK

As usually defined, the Ki is a measure of affinity in units of concentration, obtained from inhibition or displacement. With `O=C(c1ccc(CN2CCSCC2)cc1)N1CCN(C2CC2)CC1` [Example 3, (4-Cyclopropyl-piperazin-1-yl)-(4-thiomorpholin-4-ylmethyl-phenyl) -methanone], at Human H3 Receptor [1] (read-out: Ki), the Ki is 2.5 nM.
As to `CC(C)N1CCN(C(=O)c2ccc(CN3CCOCC3)cc2)CC1` [Comparative Example 1A, (4-Isopropyl-piperazin-1-yl)-(4-morpholin-4-ylmethyl-phenyl) -methanone dihydrochloride], the Kb at Human H3 Receptor [2] is 1.26 nM.
The term Cmax denotes the peak of the concentration-time curve. In general, half-life refers to the time needed for the level to fall by half in the phase considered. A word on the Tmax: it is the time from dosing to the highest level. With `O=C(O)CC(O)(CC(=O)O)C(=O)O.O=C(c1ccc(CN2CCOCC2)cc1)N1CCN(C2CCC2)CC1` [Comparative Example 2B, (4-Cyclobutyl-piperazin-1-yl)-(4-morpholin-4-ylmethyl-phenyl)-methanone citrate salt], the “CI” value in data set [3] (i.v. 1 mg/kg, citric acid salt) is 34.8 mL/min/kg; in data set [3] (setting [9]), 43.2 mL/min/kg. The maximum concentration (Cmax) is 285 ng/mL in data set [3] (setting [4]) and 683 ng/mL in data set [3] (setting [6]). Besides, the figures for the half-life in data set [3] (setting [4]) and in data set [3] (setting [6]) were 1.86 h and 2.89 h, respectively. The results for the AUC(0-inf) in data set [3] (setting [5]) and in data set [3] (setting [7]) were 464 ng·h/mL and 4100 ng·h/mL, respectively. The Tmax in data set [3] (setting [6]) is 1.33 h. The Vd in data set [3] (setting [8]) was 6.41 L/kg; in data set [3] (setting [9]), 10.33 L/kg. Further, the inhibitory constant (Ki) on Human H3 Receptor [1] (read-out: Ki) is 2 nM.
Regarding `CC(C)N1CCN(C(=O)c2ccc(CN3CCOC(CO)C3)cc2)CC1` (stereo not shown) [Comparative Example 6, [4-(2-Hydroxymethyl-morpholin-4-ylmethyl)-phenyl]-(4-isopropyl-piperazin-1-yl)-methanone], on Human H3 Receptor [2], the Kb is 6.31 nM. Further, the Ki on Human H3 Receptor [1] (read-out: Ki) came to 6 nM.
Regarding `O=C(c1ccc(CN2CCOC(CO)C2)cc1)N1CCN(C2CC2)CC1` (stereo not shown) [Example 4, (4-Cyclopropyl-piperazin-1-yl)-[4-(2-hydroxymethyl-morpholin-4-ylmethyl)-phenyl]-methanone], the Ki on Human H3 Receptor [1] (read-out: Ki) is 6 nM.
The same measure, in the same setting: for `O=C(c1ccc(CN2CCC(F)CC2)cc1)N1CCN(C2CC2)CC1` [Example 2, (4-Cyclopropyl-piperazin-1-yl)-[4-(4-fluoro-piperidin-1-ylmethyl)-phenyl]-methanone] the value was 2 nM.
In the case of `O=C(c1ccc(CN2CCC(F)CC2)cc1)N1CCN(C2CCC2)CC1` [Comparative Example 4, (4-Cyclobutyl-piperazin-1-yl)-[4-(4-fluoro-piperidin-1-ylmethyl)-phenyl]-methanone], the Kb on Human H3 Receptor [2] came to 0.1 nM. The Ki at Human H3 Receptor [1] (read-out: Ki) is 0.7 nM.
As to `CC(C)N1CCN(C(=O)c2ccc(CN3CCC(F)CC3)cc2)CC1.O=C(O)CC(O)(CC(=O)O)C(=O)O` [Comparative Example 3B, [4-(4-Fluoro-piperidin-1-ylmethyl)-phenyl]-(4-isopropyl-piperazin-1-yl)-methanone citrate salt], the “CI” value in data set [3] (i.v. 1 mg/kg, citric acid salt) was 44.2 mL/min/kg; in data set [3] (setting [9]), 270 mL/min/kg. Moreover, the “Vd” value was determined as 29.2 L/kg in data set [3] (i.v. 1 mg/kg, citric acid salt) and 180 L/kg in data set [3] (setting [9]). In addition, the “T1/2” value in data set [3] (i.v. 1 mg/kg, citric acid salt, plasma) turned out to be 7.60 h. Further, the figures for the highest concentration (Cmax) in data set [3] (setting [4]) and in data set [3] (setting [6]) were 1490 nM and 160 nM, respectively. The values for the AUC(0-inf) in data set [3] (setting [10]) and in data set [3] (setting [11]) were 1.16 µM·h and 1.95 µM·h, respectively. Besides, the Tmax in data set [3] (setting [6]) is 1.33 h. Further, the half-life in data set [3] (setting [6]) was 8.22 h. The compound also had a Kb at Human H3 Receptor [2] of 0.251 nM. Moreover, the Ki on Human H3 Receptor [1] (read-out: Ki) was 1 nM.
Regarding `O=C(c1ccc(CN2CCOCC2)cc1)N1CCN(C2CCC2)CC1` [Comparative Example 2A, (4-Cyclobutyl-piperazin-1-yl)-(4-morpholin-4-ylmethyl-phenyl)-methanone dihydrochloride], at Human H3 Receptor [1] (read-out: Ki), the Ki worked out at 1.7 nM.
With `CC(C)N1CCN(C(=O)c2ccc(CN3CCC(F)CC3)cc2)CC1` [Comparative Example 3, [4-(4-Fluoro-piperidin-1-ylmethyl)-phenyl]-(4-isopropyl-piperazin-1-yl)-methanone], the inhibition constant Ki at Human H3 Receptor [1] (read-out: Ki) was determined as 2 nM.
For the compound `O=C(O)CC(O)(CC(=O)O)C(=O)O.O=C(c1ccc(CN2CCOCC2)cc1)N1CCN(C2CC2)CC1` [Example 1B, (4-Cyclopropyl-piperazin-1-yl)-(4-morpholin-4-ylmethyl-phenyl) -methanone citrate salt], the “half-life (T1/2) relative to the comparative examples” value in data set [3] was “shorter half-life”. Also, in data set [3], the “volume of distribution (Vd) relative to the comparative examples” value was “lower volume of distribution”. The “CI” value came to 21.6 mL/min/kg in data set [3] (i.v. 1 mg/kg, citric acid salt) and 20.2 mL/min/kg in data set [3] (setting [9]). For the same compound, the Cmax worked out at 935 ng/mL in data set [3] (setting [4]) and 2790 ng/mL in data set [3] (setting [6]). The half-life is 0.92 h in data set [3] (setting [4]) and 3.11 h in data set [3] (setting [6]). The AUC(0-inf) is 777 ng·h/mL in data set [3] (setting [5]) and 8720 ng·h/mL in data set [3] (setting [7]). For the same compound, the time of peak concentration (Tmax) in data set [3] (setting [6]) was 0.5 h. Moreover, the results for the Vd in data set [3] (setting [8]) and in data set [3] (setting [9]) were 1.72 L/kg and 5.45 L/kg, respectively. On Human H3 Receptor [1] (Ki (nM)), this compound had an inhibition constant (Ki) of 6.5 nM.
As to `CC(C)N1CCN(C(=O)c2ccc(CN3CCOC(CO)C3)cc2)CC1` (stereo not shown) [Comparative Example 6B, [4-(2-Hydroxymethyl-morpholin-4-ylmethyl)-phenyl]-(4-isopropyl-piperazin-1-yl)-methanone citratae salt], the “CI” value in data set [3] (i.v. 1 mg/kg, citric acid salt) was determined as 34.9 mL/min/kg. Further, in data set [3] (setting [4]), the Cmax came out at 1410 nM and the half-life was 2.36 h. In data set [3] (setting [10]), the AUC(0-inf) came to 1.34 µM·h. In data set [3] (setting [6]), the peak concentration (Cmax) is 2960 nM, the Tmax was found to be 0.5 h and the half-life was 4.35 h. For the same compound, in data set [3] (setting [11]), the AUC(0-inf) is 20 µM·h. Also, in data set [3] (setting [8]), the Vd turned out to be 7.04 L/kg. Also, the Ki on Human H3 Receptor [1] (read-out: Ki) was determined as 5 nM.
Consider `O=C(O)CC(O)(CC(=O)O)C(=O)O.O=C(c1ccc(CN2CCOC(CO)C2)cc1)N1CCN(C2CC2)CC1` (stereo not shown) [Example 4B, (4-Cyclopropyl-piperazin-1-yl)-[4-(2-hydroxymethyl-morpholin-4-ylmethyl)-phenyl]-methanone citrate salt], for which, in data set [3], the “half-life (T1/2) relative to the comparative examples” value is recorded as “shorter T1/2” and the “volume of distribution (Vd) relative to the comparative examples” value is “lower Vd”. The “CI” value in data set [3] (i.v. 1 mg/kg, citric acid salt) is on record as 15.2 mL/min/kg. Further, in data set [3] (setting [4]), the peak concentration (Cmax) came out at 2920 nM and the half-life is 1.47 h. Besides, in data set [3] (setting [10]), the AUC(0-inf) was 3.07 µM·h. In addition, in data set [3] (setting [6]), the Cmax is 8730 nM, the Tmax was 0.83 h and the half-life was 3.58 h. For the same compound, the AUC(0-inf) in data set [3] (setting [11]) was 33.2 µM·h. The Vd in data set [3] (setting [8]) was found to be 1.91 L/kg. For the same compound, on Human H3 Receptor [1] (read-out: Ki), the inhibition constant (Ki) worked out at 23 nM.
In turn, `CC(C)N1CCN(C(=O)c2ccc(CN3CCOCC3)cc2)CC1` [Comparative Example 1, (4-Isopropyl-piperazin-1-yl)-(4-morpholin-4-ylmethyl-phenyl) -methanone] showed a Kb at Human H3 Receptor [2] of 1 nM.
`O=C(c1ccc(CN2CCSCC2)cc1)N1CCN(C2CCC2)CC1` [Comparative Example 5, (4-Cyclobutyl-piperazin-1-yl)-(4-thiomorpholin-4-ylmethyl-phenyl)-methanone]: at Human H3 Receptor [1] (read-out: Ki), the Ki amounted to 1 nM.
